Measured values reported in article PMC6934184, “Selective DNA-PKcs inhibition extends the therapeutic index of localized radiotherapy and chemotherapy” (The Journal of Clinical Investigation, 2019).

Target: T1, RET V804L (Homo sapiens, UniProt P07949, V804L)
T1 construct: purchased Thermo Fisher Scientific (Life Technologies) SelectScreen
Assay: SelectScreen Z'LYTE
Assay type: biochemical
Procedure, shortened: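 NU5455 was profiled across the SelectScreen Broad panel of kinase activity and binding assays. Z'LYTE reactions such as CSF1R ran at apparent Km ATP, while the Adapta CAMK1 assay used ATP listed as 10. Values are given as percent.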

T1 sequence (P07949 29-1114 V804L): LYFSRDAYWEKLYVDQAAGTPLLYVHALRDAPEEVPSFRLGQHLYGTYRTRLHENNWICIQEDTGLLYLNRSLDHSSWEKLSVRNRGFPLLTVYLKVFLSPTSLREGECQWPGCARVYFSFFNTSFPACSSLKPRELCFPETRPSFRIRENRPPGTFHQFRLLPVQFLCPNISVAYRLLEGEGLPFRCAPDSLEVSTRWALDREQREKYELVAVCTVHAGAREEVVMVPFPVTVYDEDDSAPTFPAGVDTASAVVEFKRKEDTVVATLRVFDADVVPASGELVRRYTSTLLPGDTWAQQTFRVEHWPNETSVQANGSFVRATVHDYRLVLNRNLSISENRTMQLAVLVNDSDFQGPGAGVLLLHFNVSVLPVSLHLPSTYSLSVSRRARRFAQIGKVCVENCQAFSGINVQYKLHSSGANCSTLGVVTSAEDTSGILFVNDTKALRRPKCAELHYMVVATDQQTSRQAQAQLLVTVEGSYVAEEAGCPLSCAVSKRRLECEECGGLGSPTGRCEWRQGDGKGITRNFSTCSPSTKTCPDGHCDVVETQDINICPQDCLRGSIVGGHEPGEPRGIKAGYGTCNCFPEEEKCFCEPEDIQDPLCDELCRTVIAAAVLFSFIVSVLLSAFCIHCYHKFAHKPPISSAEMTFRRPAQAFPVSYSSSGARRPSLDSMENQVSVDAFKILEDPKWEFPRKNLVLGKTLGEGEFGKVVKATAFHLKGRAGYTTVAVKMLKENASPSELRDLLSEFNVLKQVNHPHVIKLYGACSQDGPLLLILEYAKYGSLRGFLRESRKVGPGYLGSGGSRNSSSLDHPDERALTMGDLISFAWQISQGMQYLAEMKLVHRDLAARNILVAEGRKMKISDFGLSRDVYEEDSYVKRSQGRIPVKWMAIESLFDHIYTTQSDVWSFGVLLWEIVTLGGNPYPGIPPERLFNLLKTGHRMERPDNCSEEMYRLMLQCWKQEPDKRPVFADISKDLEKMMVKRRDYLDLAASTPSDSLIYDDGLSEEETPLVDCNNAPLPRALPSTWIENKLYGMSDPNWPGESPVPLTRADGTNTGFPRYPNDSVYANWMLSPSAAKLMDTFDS

In the case of `CN(C(=O)CN1CCOCC1)c1ccc2sc3c(-c4cccc5c(=O)cc(N6CC7CCC(C6)O7)oc45)cccc3c2c1` [NU5455], the inhibition at 1 µM is reported as -9.1%.
